Consider 3 compounds from patent publication US8980936B2, “Phenoxy-pyrrolidine derivative and its use and compositions” (Thesan Pharmaceuticals, Inc., priority 2007, dated 2015).

Test [1] has as its system sebum production. As to conditions: background statement, cited from earlier work.
Test [2] addresses T1, stearoyl CoA desaturase (SCD1) (Rattus norvegicus, UniProt P07308).
T1 construct: Rat liver microsomes are allowed to react with stearoyl-coenzyme A labeled with D3; from tissue
T1 sequence (P07308 1-358): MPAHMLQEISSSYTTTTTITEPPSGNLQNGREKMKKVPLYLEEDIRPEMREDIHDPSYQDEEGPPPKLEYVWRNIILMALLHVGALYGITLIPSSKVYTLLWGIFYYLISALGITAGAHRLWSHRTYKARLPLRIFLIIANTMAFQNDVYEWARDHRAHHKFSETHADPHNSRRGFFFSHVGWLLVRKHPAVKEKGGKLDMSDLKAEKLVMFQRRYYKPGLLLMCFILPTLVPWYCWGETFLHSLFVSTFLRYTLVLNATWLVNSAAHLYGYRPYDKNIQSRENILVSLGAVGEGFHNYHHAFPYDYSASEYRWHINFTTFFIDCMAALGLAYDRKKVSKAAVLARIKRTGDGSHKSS
The experiment in a line: Rat microsomal assay: conversion of labeled stearoyl CoA to oleoyl CoA by LC/MS/MS. The test is classed as biochemical. As to conditions: rat liver microsomes; 40 μM substrate (2× Km); mean of N=3; read-out: IC50, inhibition of SCD1 activity (conversion of stearoyl CoA to oleoyl CoA). Here is the method: As described below, the assay measures the conversion of labeled stearoyl CoA to oleoyl CoA using LC/MS/MS.
In order to increase SCD1 activity in rat liver microsomes, Sprague Dawley rats are fasted for 40 hours. Following fasting diet is replaced with free fatty acid deficient chow ad libitum for 48 hours. Rats are then euthanized using CO2 asphyxiation and their livers are removed. Livers are weighed, minced and placed in homogenization buffer ([…], 50 mM Tris-HCl, pH 7.5, 5 mM EDTA, 1.5 mM GSH) on ice. Microsomes are isolated by homogenization with a polytron and several centrifugation steps. Following final centrifugation, the resulting pellet is resuspended in homogenization buffer and protein concentration is determined. Aliquots are stored at −80° C. until use.
Rat liver microsomes are allowed to react with stearoyl-coenzyme A labeled with D3 in the presence of the compound of Formula I to test the compound's ability to inhibit the conversion of stearoyl-coenzyme A to oleoyl coenzyme A. The reaction is terminated using acetonitrile. Free fatty acids are extracted by saponification of the samples with 2M KOH at 70° C. […] Samples are reconstituted in 9:1 Methanol:Water, with 2 ug/ml heptadecanoic acid added as an internal standard, and analyzed by LC/MS/MS. The ability to inhibit the conversion of stearoyl CoA to oleoyl CoA is expressed as an IC50.

Test [3] concerns the target T2, SCD1 enzyme in intact human cells (Homo sapiens, UniProt O00767).
T2 construct: The cells were received as pre-adipocytes and then differentiated for 5 days in a 384 well format; host or cells: cryopreserved human subcutaneous preadipocytes, differentiated to adipocytes
T2 sequence (O00767 1-359): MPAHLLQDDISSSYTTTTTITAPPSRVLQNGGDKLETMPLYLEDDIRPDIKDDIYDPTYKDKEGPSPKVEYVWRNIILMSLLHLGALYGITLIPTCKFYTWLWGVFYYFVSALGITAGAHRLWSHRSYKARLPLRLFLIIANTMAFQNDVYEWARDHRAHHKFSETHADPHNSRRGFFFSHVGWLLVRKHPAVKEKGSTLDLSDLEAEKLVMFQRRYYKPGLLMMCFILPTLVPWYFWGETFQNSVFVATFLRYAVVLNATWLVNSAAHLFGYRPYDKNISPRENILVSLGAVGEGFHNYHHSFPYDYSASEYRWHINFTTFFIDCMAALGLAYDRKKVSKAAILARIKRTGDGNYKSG
Briefly: Human adipocyte (AdipoRed) assay: production of triglycerides. As to conditions: differentiated human subcutaneous adipocytes; 6 days compound treatment; mean of N=6; read-out: IC50, inhibition of the production of triglycerides. Format: cell-based. Here is the method:
The role of SCD1 is believed to be similar in adipocytes and sebocytes. The ability of the compound to inhibit the SCD1 enzyme in intact human cells was determined using the Human AdipoRed assay as described below. The cells were received as pre-adipocytes and then differentiated for 5 days in a 384 well format. The compound is added at various concentrations for 6 days. The production of triglycerides was then assessed by a unique dye which specifically binds to secreted triglycerides. The ability to inhibit the production of triglycerides is expressed as an IC50.
Cryopreserved subcutaneous preadipocytes (Cat #: PT-5001 Supplier: Cambrex Bio Science) were briefly thawed in 37 C and spin down at 1000 rpm for 5 minutes. Preadipocyte are resuspended in 30 ml of Growth Media (GM, Cat #: PT-8202 Cambrex Bio Science) and are diluted to final concentration of 75,000 cells/ml. 40 μl of Cells are then plated into wells of 384-Well BD Falcon polystyrene assay plate at the density of 3,000 cells (40 μl) per well. […]
After 5 days' differentiation, cells were treated with 2 μl of the compound from 96-well compound plate in duplicate by Biomek FX. […] The accumulation of intracellular triglycerides is then quantified by measuring fluoresce at 572 nm on a SpectraMax M5 microplate reader.

The subject of test [4] is male Syrian hamsters. Briefly: Hamster ear model: inhibition of sebum production. Format: in vivo, Syrian hamster. From the text: The hamster ear model is a validated animal model for testing whether compounds are capable of modulating sebaceous gland function and sebum secretion. Luderschmidt et al, Arch. Derm. Res. 258, 185-191 (1977). This model uses male Syrian hamsters, whose ears contain sebaceous glands. The compound of the invention was screened in this model according to the procedure outlined below. In these studies, the hamsters are topically dosed twice daily (BID) for 2 weeks, 5 days a week (Monday to Friday). Each dose consisted of 25 μl of vehicle control or formulated test article, which was evenly applied to ˜3 cm^2 of the ventral surfaces of both the right and left ears. At sacrifice, skin punches are taken for lipid analysis, histology and skin concentrations of the test compound.
Male Syrian hamsters aged 9 to 10 weeks were introduced into the laboratory environment and acclimated for 2 weeks prior to use in the study. Each group consisted of 5 animals and run in parallel with vehicle and positive controls. […]
Animals were dosed topically twice daily, five days a week, for 2 weeks. Each dose consisted of 25 μl of vehicle control or drug. The dose was applied to the ventral surfaces of both the right and left ears. All animals were sacrificed approximately 18-24 hours after the final dose. The right ears were collected from each animal and used for sebum analysis.
The ears were prepped for HPLC analysis in the following manner. One 8 mm distal biopsy punch was taken, just above the anatomical “V” mark in the ear to normalize the sample area. The punch was pulled apart. The ventral biopsy surface (the area where the topical dose was directly applied to the sebaceous glands) was retained for testing and the dorsal surface of the biopsy punch was discarded.
Tissue samples were blown with N2 gas and stored at −80° C. under nitrogen until HPLC analysis. In addition to ear samples, an aliquot of each drug and vehicle (at least 250 μl) was also stored at −80° C. for inclusion in the HPLC analysis.
HPLC analysis was carried out on an extract of the tissue sample. Tissue samples were contacted with 3 ml of solvent (a 4:1 admixture of 2,2,4-trimethylpentane and isopropyl alcohol). The mixture was shaken for 15 minutes and stored overnight at room temperature, protected from light. The next morning 1 milliliter of water was added to the sample and shaken for 15 minutes. The sample was then centrifuged at approximately 1500 rpm for 15 minutes. Two ml of the organic phase (top layer) was transferred to a glass vial, dried at 37° C., under nitrogen, for approximately 1 hour, and then lyophilized for approximately 48 hours. The samples were then removed from the lyophilizer and each vial was reconstituted with 600 μl of solvent A (trimethylpentane/tetrahydrofuran (99:1). The samples were then recapped and vortexed for 5 minutes.
200 μl of each sample was then transferred to a pre-labeled 200 μl HPLC vial with 200 μL glass inserts. The HPLC vials were placed in the autosampler tray for the Agilent 1100 series HPLC unit. The Agilent 1100 HPLC system consisted of a thermostated autosampler, a quaternary pump, a column heater, and an A/D interface module. All components were controlled by Agilent ChemStation software. A Waters Spherisorb S3W […] analytical column was maintained at 30° C. by the Agilent column heater unit. The HPLC autosampler was programmed to maintain the sample temperature at 20° C. throughout the run.
10 μL of each sample was injected in triplicate into the column. Two solvents were used for the solvent gradient. Solvent A was an admixture of trimethylpentane and tetrahydrofuran (99:1). Solvent B was ethyl acetate. The gradient utilized is described in the table below: […]
The Sedex 75 Evaporative Light Scattering Detector (ELSD) was operated at 45° C. with a gain of 5, and N2 pressure maintained at 3.1 bar. Analog signal obtained by the instrument was sent to the Agilent A/D interface module where it was converted to a digital output. […]

Setting [5] is: dose response experiment, formulated in propylene glycol:ethanol 30.70 (w/v), topical.
[6] abbreviates: dosed at 1.5% in propylene glycol/transcutanol/ethanol 20/20/60, topical BID, 2 weeks, hamster ear.
The mark [7] stands for this setting: two week topical BID application, propylene glycol:ethanol 30.70.

Consider `CC1=C(/C=C/C(C)=C/C=C/C(C)=C\C(=O)O)C(C)(C)CCC1` [Isotretinoin], for which the “suppression of sebum production” value in test [1] is on record as “up to 90%”.

In the case of `CCOC(=O)/C=C(C)/C=C/C=C(C)/C=C/c1c(C)cc(OC)c(C)c1C` [etretinate], the “effect on sebum synthesis” value in test [1] (Zouboulis 2004) was “do not reduce sebum synthesis”.

By IC50 is commonly meant the concentration needed to halve the response being measured. Take `O=C(COc1ccc(CO)cc1)N1CC[C@H](Oc2ccccc2C(F)(F)F)C1` [compound of Formula I, (S)-2-(4-(hydroxymethyl)phenoxy)-1-(3-(2-(trifluoromethyl)phenoxy)pyrroli-din-1-yl)ethanone]: in test [2], the IC50 worked out at 5.8 nM. Besides, in test [3], the half-maximal inhibitory concentration (IC50) came out at 6.8 nM. In test [4] (setting [5]), the “CE and WE production, dose response” value was “dose dependent decrease of both CE and WE production”; the “sebaceous gland size and number, histology” value is “Dose related changes in sebaceous gland size and number”. Further, in test [4] (setting [6]), the “reduction in cholesterol ester (CE) compared to vehicle control” value worked out at 62%, the “reduction in wax ester (WE) compared to vehicle control” value turned out to be 82% and the sebaceous gland size result was “reduction in sebaceous gland size”. Moreover, in test [4] (setting [7]), the “ED50 based on WE reduction” value is reported as 0.3% and the “ED50 based on WE reduction, per area” value is listed as 0.025 mg/cm^2.
